According to ChEMBL document CHEMBL3880383, “2-oxo-1-pyrrolidine derivative and its pharmaceutical uses” (2004):
pKi: −log10 of the molar value.

Experiments:
[1] = molecular target: Synaptic vesicle glycoprotein 2A (Rattus norvegicus, UniProt Q02563); test: Displacement of [3H]-2-[4-(3-azidophenyl)-2-oxo-1-pyrrolidinyl]butanamide from SV2A levetiracetam binding site in Sprague-Dawley rat cerebral cortex membranes after 120 mins by liquid scintillation counting method; design: species or system Membrane
Mus musculus = test: Anticonvulsant activity in ip dosed sound susceptible DBA mouse model assessed as protection against audiogenic seizure-induced wild running, clonic and tonic convulsion administered 60 mins prior to induction of audiogenic seizures measured for 30 secs; type: functional
[2] = Mus musculus, DBA, ip, read-out: ED50

Chain of Synaptic vesicle glycoprotein 2A (Q02563 whole entry): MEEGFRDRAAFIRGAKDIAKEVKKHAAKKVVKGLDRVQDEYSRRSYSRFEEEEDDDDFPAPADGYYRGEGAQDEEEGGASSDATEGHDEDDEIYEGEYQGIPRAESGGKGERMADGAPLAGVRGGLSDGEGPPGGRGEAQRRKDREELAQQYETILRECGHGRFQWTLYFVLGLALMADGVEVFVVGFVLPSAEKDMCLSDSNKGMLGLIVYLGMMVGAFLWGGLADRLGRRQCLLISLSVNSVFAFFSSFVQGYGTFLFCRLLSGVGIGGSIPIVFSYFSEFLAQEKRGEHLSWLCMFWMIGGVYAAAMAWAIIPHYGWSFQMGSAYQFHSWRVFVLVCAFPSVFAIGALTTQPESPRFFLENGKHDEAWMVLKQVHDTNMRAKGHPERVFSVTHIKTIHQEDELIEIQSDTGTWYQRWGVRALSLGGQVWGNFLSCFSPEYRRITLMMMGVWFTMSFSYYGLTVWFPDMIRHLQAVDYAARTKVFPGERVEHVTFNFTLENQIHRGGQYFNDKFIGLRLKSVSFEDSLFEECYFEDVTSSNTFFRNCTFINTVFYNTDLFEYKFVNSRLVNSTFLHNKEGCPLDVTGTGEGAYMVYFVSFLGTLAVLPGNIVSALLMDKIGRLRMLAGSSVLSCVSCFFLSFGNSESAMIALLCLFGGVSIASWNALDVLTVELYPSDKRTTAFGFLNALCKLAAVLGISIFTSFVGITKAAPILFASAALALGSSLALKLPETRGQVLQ

Structure (SMILES)	pKi [1]	ED50 (Mus musculus; [2])	ED50 (Mus musculus)
CC[C@@H](C(N)=O)N1CC(c2ccccc2OC)CC1=O (stereo partly drawn)	≥ 6.00	–	–
CC[C@@H](C(N)=O)N1CC(c2cccc(OC)c2)CC1=O (stereo partly drawn)	≥ 6.00	–	–
CCC[C@@H]1CC(=O)N([C@@H](CC)C(N)=O)C1 [BRIVARACETAM]	≥ 6.00	100 µmol/kg	–
CC[C@H](C(N)=O)N1CC(C=C(Cl)Cl)CC1=O (stereo partly drawn)	≥ 6.00	100 µmol/kg	–
CCCC1CC(=O)N(C(C)C(N)=O)C1 (stereo not drawn)	≥ 6.00	–	–
CCC(C(N)=O)N1CC(C=C(F)F)CC1=O (stereo not drawn)	≥ 6.00	100 µmol/kg	–
CCC(C(N)=O)N1CC(c2ccc(Cl)cc2Cl)CC1=O (stereo not drawn)	≥ 6.00	100 µmol/kg	–
CC[C@@H](C(N)=O)N1CC(c2ccc(-c3ccccc3)cc2)CC1=O (stereo partly drawn)	≥ 6.00	–	–
C=C[C@@H]1CC(=O)N([C@@H](CC)C(N)=O)C1	≥ 6.00	100 µmol/kg	–
CCCCOC(=O)CC(CCC)CN[C@@H](CC)C(N)=O (stereo partly drawn)	–	100 µmol/kg	–
CC[C@@H](C(N)=O)N1CC(CI)CC1=O (stereo partly drawn)	≥ 6.00	100 µmol/kg	–
CC[C@@H](C(N)=O)N1CC(CC2CC2)CC1=O (stereo partly drawn)	≥ 6.00	100 µmol/kg	–
CC[C@@H](C(N)=O)N1C[C@H](C=C(Br)Br)CC1=O	≥ 6.00	100 µmol/kg	–
CCC(C(N)=O)N1CC(CC(F)F)CC1=O (stereo not drawn)	≥ 6.00	–	–
CCC(C(N)=O)N1CC(C#CBr)CC1=O (stereo not drawn)	≥ 6.00	100 µmol/kg	–
CCC(C(N)=O)N1CC(c2ccccc2Br)CC1=O (stereo not drawn)	≥ 6.00	100 µmol/kg	–
CCC[C@@H](C(N)=O)N1C[C@H](CI)CC1=O	≥ 6.00	100 µmol/kg	–
CCC(C(N)=O)N1CC(C=C(C)C)CC1=O (stereo not drawn)	≥ 6.00	100 µmol/kg	–
CC[C@@H](C(N)=O)N1CC(c2ccsc2)CC1=O (stereo partly drawn)	≥ 6.00	100 µmol/kg	–
CCCC1CC(=O)N(C(CC2CC2)C(N)=O)C1 (stereo not drawn)	≥ 6.00	–	–
CCC(C(N)=O)N1CC(c2cccnc2)CC1=O (stereo not drawn)	≥ 6.00	100 µmol/kg	–

Structure (SMILES)	pKi [1]	ED50 (Mus musculus; [2])	ED50 (Mus musculus)
CCC(C(N)=O)N1C[C@H](CC(C)(F)F)CC1=O (stereo partly drawn)	≥ 6.00	100 µmol/kg	–
CCCC(CN[C@@H](CC)C(N)=O)CC(=O)OC(C)C (stereo partly drawn)	–	100 µmol/kg	–
C[C@@H](C(N)=O)N1C[C@H](CI)CC1=O	≥ 6.00	100 µmol/kg	–
CCC(C(N)=O)N1CC(c2cccc(Cl)c2)CC1=O (stereo not drawn)	≥ 6.00	100 µmol/kg	–
CC[C@@H](C(N)=O)N1CC(CCl)CC1=O (stereo partly drawn)	≥ 6.00	100 µmol/kg	–
CCC(C(N)=O)N1CC(c2ccccc2F)CC1=O (stereo not drawn)	≥ 6.00	100 µmol/kg	–
C#CC1CC(=O)N(C(CC)C(N)=O)C1 (stereo not drawn)	≥ 6.00	100 µmol/kg	–
C=C[C@H]1CC(=O)N([C@@H](CC)C(N)=O)C1	≥ 6.00	100 µmol/kg	–
CCC(C(N)=O)N1CC(CC(C)C)CC1=O (stereo not drawn)	≥ 6.00	100 µmol/kg	–
CC[C@@H](C(N)=O)N1CC(c2cccc(Br)c2)CC1=O (stereo partly drawn)	≥ 6.00	100 µmol/kg	–
CC[C@@H](C(N)=O)N1C[C@H](CI)CC1=O	≥ 6.00	100 µmol/kg	–
CC[C@@H](C(N)=O)N1C[C@@H](C=C(Br)Br)CC1=O	≥ 6.00	100 µmol/kg	–
CC[C@@H](C(N)=O)N1CC(CSC)CC1=O (stereo partly drawn)	≥ 6.00	100 µmol/kg	–
CCC(C(N)=O)N1CC(c2ccc(Cl)c(Cl)c2)CC1=O (stereo not drawn)	≥ 6.00	100 µmol/kg	–
CCC1CC(=O)N([C@@H](CC)C(N)=O)C1 (stereo partly drawn)	≥ 6.00	100 µmol/kg	–
CC[C@@H](C(N)=O)N1CC(c2cc(Br)cc(Br)c2)CC1=O (stereo partly drawn)	≥ 6.00	100 µmol/kg	–
CC[C@@H](C(N)=O)N1CC(COS(=O)(=O)c2ccc(C)cc2)CC1=O (stereo partly drawn)	≥ 6.00	100 µmol/kg	–
CCCC(CN[C@@H](CC)C(N)=O)CC(=O)OCC (stereo partly drawn)	–	100 µmol/kg	–
CC[C@@H](C(N)=O)N1CC(CC(C)=O)CC1=O (stereo partly drawn)	≥ 6.00	100 µmol/kg	–
CCCCC1CC(=O)N(C(CC)C(N)=O)C1 (stereo not drawn)	≥ 6.00	100 µmol/kg	–
CCCCCC1CC(=O)N(C(CC)C(N)=O)C1 (stereo not drawn)	≥ 6.00	–	–

Structure (SMILES)	pKi [1]	ED50 (Mus musculus; [2])	ED50 (Mus musculus)
CC[C@@H](C(N)=O)N1CC(c2cccs2)CC1=O (single isomer, unassigned; diastereomer 2)	≥ 6.00	–	100 µmol/kg
CCC(C(N)=O)N1CC(CI)CC1=O (stereo not drawn)	≥ 6.00	–	–
CC[C@@H](C(N)=O)N1CC(CCc2ccccc2)CC1=O (stereo partly drawn)	≥ 6.00	–	–
CCC(C(N)=O)N1CC(c2cccc(C)c2)CC1=O (stereo not drawn)	≥ 6.00	100 µmol/kg	–
CC[C@@H](C(N)=O)N1CC(CCC(F)(F)F)CC1=O (stereo partly drawn)	≥ 6.00	100 µmol/kg	–
CC[C@@H](C(N)=O)N1CC(CO[N+](=O)[O-])CC1=O (stereo partly drawn)	≥ 6.00	100 µmol/kg	–
CCC(C(N)=O)N1CC(c2ccco2)CC1=O (stereo not drawn)	≥ 6.00	100 µmol/kg	–
CC[C@@H](C(=O)NC)N1C[C@H](CI)CC1=O	≥ 6.00	100 µmol/kg	–
C=CC1CC(=O)N(C(CC)C(N)=O)C1 (stereo not drawn)	≥ 6.00	100 µmol/kg	–
CCC(C(N)=O)N1CC(c2cc(C(F)(F)F)cc(C(F)(F)F)c2)CC1=O (stereo not drawn)	≥ 6.00	–	–
CC[C@@H](C(N)=O)N1CC(c2cccs2)CC1=O (single isomer, unassigned; diastereomer 1)	–	100 µmol/kg	–
CC[C@@H](C(N)=O)N1CC(CC(C)(C)C)CC1=O (stereo partly drawn)	≥ 6.00	–	–
CC[C@@H](C(N)=O)N1C[C@H](C=C(F)F)CC1=O [SELETRACETAM]	≥ 6.00	100 µmol/kg	–
C=CCC(C(N)=O)N1CC(CCC)CC1=O (stereo not drawn)	≥ 6.00	–	–
CC[C@@H](C(N)=O)N1CC(C#CBr)CC1=O (stereo partly drawn)	≥ 6.00	100 µmol/kg	–
CC[C@@H](C(N)=O)N1CC(c2ccccc2)CC1=O (stereo partly drawn)	≥ 6.00	100 µmol/kg	–
CCCC1CC(=O)N(C(Cc2cscn2)C(N)=O)C1 (stereo not drawn)	≥ 6.00	–	–
CC[C@@H](C(N)=O)N1CC(c2ccc(N=[N+]=[N-])cc2)CC1=O (stereo partly drawn)	≥ 6.00	100 µmol/kg	–
CC[C@@H](C(N)=O)N1C[C@H](CN=[N+]=[N-])CC1=O	≥ 6.00	100 µmol/kg	–
CCC(C(N)=O)N1CC(C=C(Br)Br)CC1=O (stereo not drawn)	≥ 6.00	100 µmol/kg	–
CCCC(CN[C@@H](CC)C(N)=O)CC(=O)OCCC12CC3CC(CC(C3)C1)C2 (stereo partly drawn)	–	100 µmol/kg	–

Structure (SMILES)	pKi [1]	ED50 (Mus musculus; [2])	ED50 (Mus musculus)
CCC(C(N)=O)N1CC(c2ccccc2C(F)(F)F)CC1=O (stereo not drawn)	≥ 6.00	–	–
CC[C@@H](C(N)=O)N1CC(Cn2cnnn2)CC1=O (stereo partly drawn)	≥ 6.00	100 µmol/kg	–
CCCC1CC(=O)N(C(CC)C(N)=O)C1 (stereo not drawn)	≥ 6.00	100 µmol/kg	–
CCC[C@H]1CC(=O)N([C@@H](CC)C(N)=O)C1	≥ 6.00	100 µmol/kg	–
CC[C@@H](C(N)=O)N1CC(n2cccc2Br)CC1=O (stereo partly drawn)	≥ 6.00	100 µmol/kg	–
CCC(C(N)=O)N1CC(c2ccc(Cl)cc2)CC1=O (stereo not drawn)	≥ 6.00	–	–
CCC(C(N)=O)N1CC(/C=C\F)CC1=O (stereo not drawn)	≥ 6.00	100 µmol/kg	–
CC[C@@H](C(N)=O)N1CC(n2cccc2)CC1=O (stereo partly drawn)	≥ 6.00	100 µmol/kg	–
CC[C@@H](C(N)=O)N1CC(CN=C=S)CC1=O (stereo partly drawn)	≥ 6.00	–	–
CCC(C(N)=O)N1CC(CC2CC2)CC1=O (stereo not drawn)	≥ 6.00	100 µmol/kg	–
CCC(C(N)=O)N1CC(CS(=O)(=O)c2ccccc2)CC1=O (stereo not drawn)	≥ 6.00	–	–
CC[C@@H](C(N)=O)N1CC(CCCc2ccccc2)CC1=O (stereo partly drawn)	≥ 6.00	100 µmol/kg	–
CCCC1CC(=O)N(C(CCC)C(N)=O)C1 (stereo not drawn)	≥ 6.00	–	–
CCCC1(C)CC(=O)N([C@@H](CC)C(N)=O)C1 (stereo partly drawn)	≥ 6.00	100 µmol/kg	–
C=CCC1CC(=O)N([C@@H](CC)C(N)=O)C1 (stereo partly drawn)	≥ 6.00	100 µmol/kg	–
CC[C@@H](C(N)=O)N1CC(c2cccc(N=[N+]=[N-])c2)CC1=O (stereo partly drawn)	≥ 6.00	100 µmol/kg	–
CC[C@@H](C(N)=O)N1C[C@@H](C=C(F)F)CC1=O	≥ 6.00	100 µmol/kg	–
CC[C@@H](C(N)=O)N1CC(CBr)CC1=O (stereo partly drawn)	≥ 6.00	100 µmol/kg	–
CCC(C(N)=O)N1CC(c2nccs2)CC1=O (stereo not drawn)	≥ 6.00	100 µmol/kg	–
CC[C@@H](C(N)=O)N1CC(CC(C)I)CC1=O (stereo partly drawn)	≥ 6.00	100 µmol/kg	–
